System: 695427-040-R-J1-PDC complex spheroid viability
Test: Anticancer human tumor 695427-040-R-J1-PDC patient-derived colon adenocarcinoma cell line growth inhibition [RAS]
Settings: for IC50: curve of first compound; for viability, T/C: stronger effect = lower value; active = viability on the fitted dose curve at most 10% of control; inactive = the rest
Outline: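 Agents were tested in combination matrices in half-log decrements from a top concentration at or near clinical Cmax (10 microM if undetermined). Targets were multi-cell spheroids of tumour lines plus HUVEC and MSC stromal cells.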

[1] = second compound 0.000949 µM, first compound 0.00316 µM
[2] = second compound 0.000949 µM, first compound 0.01 µM
[3] = second compound 0.000949 µM, first compound 0.0316 µM
[4] = second compound 0.000949 µM, first compound 0.1 µM
[5] = second compound 0.000949 µM, first compound 0.316 µM
[6] = second compound 0.000949 µM, first compound 1 µM
[7] = second compound 0.003 µM, first compound 0.00316 µM
[8] = second compound 0.003 µM, first compound 0.01 µM
[9] = second compound 0.003 µM, first compound 0.0316 µM
[10] = second compound 0.003 µM, first compound 0.1 µM
[11] = second compound 0.003 µM, first compound 0.316 µM
[12] = second compound 0.003 µM, first compound 1 µM
[13] = second compound 0.00949 µM, first compound 0.00316 µM
[14] = second compound 0.00949 µM, first compound 0.01 µM
[15] = second compound 0.00949 µM, first compound 0.0316 µM
[16] = second compound 0.00949 µM, first compound 0.1 µM
[17] = second compound 0.00949 µM, first compound 0.316 µM
[18] = second compound 0.00949 µM, first compound 1 µM
[19] = second compound 0.03 µM, first compound 0.00316 µM
[20] = second compound 0.03 µM, first compound 0.01 µM
[21] = second compound 0.03 µM, first compound 0.0316 µM
[22] = second compound 0.03 µM, first compound 0.1 µM
[23] = second compound 0.03 µM, first compound 0.316 µM
[24] = second compound 0.03 µM, first compound 1 µM
[25] = second compound 0.0949 µM, first compound 0.00316 µM
[26] = second compound 0.0949 µM, first compound 0.01 µM
[27] = second compound 0.0949 µM, first compound 0.0316 µM
[28] = second compound 0.0949 µM, first compound 0.1 µM
[29] = second compound 0.0949 µM, first compound 0.316 µM
[30] = second compound 0.0949 µM, first compound 1 µM
[31] = second compound 0.3 µM, first compound 0.00316 µM
[32] = second compound 0.3 µM, first compound 0.01 µM
[33] = second compound 0.3 µM, first compound 0.0316 µM
[34] = second compound 0.3 µM, first compound 0.1 µM
[35] = second compound 0.3 µM, first compound 0.316 µM
[36] = second compound 0.3 µM, first compound 1 µM
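Note: viability read after seven days of drug exposure.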
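Throughout, for viability, T/C: 100% = DMSO vehicle control viability.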

C=CC(=O)N1CCN(c2nc(OCC3CCCN3C)nc3c(F)c(-c4nc(N)cc(C)c4C(F)(F)F)c(Cl)cc23)C(C)C1 (stereo unspecified) + CCn1c(-c2cc(N3CCN(C)CC3)cnc2C(C)OC)c2c3cc(ccc31)-c1csc(n1)CC(NC(=O)C1CC1C)C(=O)N1CCCC(N1)C(=O)OCC(C)(C)C2
inactive: viability, T/C [1] 91.6% | viability, T/C [2] 115% | viability, T/C [3] 99.4% | viability, T/C [4] 94.1% | viability, T/C [5] 110% | viability, T/C [6] 90% | viability, T/C [7] 92.3% | viability, T/C [8] 99.9% | viability, T/C [9] 85.7% | viability, T/C [10] 85% | viability, T/C [11] 98.9% | viability, T/C [12] 85.5% | viability, T/C [13] 94% | viability, T/C [14] 69.2% | viability, T/C [15] 81.2% | viability, T/C [16] 75.3% | viability, T/C [17] 76.4% | viability, T/C [18] 69.1% | viability, T/C [19] 69.5% | viability, T/C [20] 63.7% | viability, T/C [21] 57% | viability, T/C [22] 55.5% | viability, T/C [23] 56.3% | viability, T/C [24] 59% | viability, T/C [25] 52.3% | viability, T/C [26] 47.7% | viability, T/C [27] 42.3% | viability, T/C [28] 42.8% | viability, T/C [29] 47.1% | viability, T/C [30] 45.1% | viability, T/C [31] 39.2% | viability, T/C [32] 34.7% | viability, T/C [33] 42.7% | viability, T/C [34] 38% | viability, T/C [35] 36.8% | viability, T/C [36] 37.1%
> 1 µM: IC50 (second compound 0.000949 µM) | IC50 (second compound 0.003 µM) | IC50 (second compound 0.00949 µM) | IC50 (second compound 0.03 µM)
< 0.00316 µM: IC50 (second compound 0.0949 µM) | IC50 (second compound 0.3 µM)

CC1(C)CCC(Nc2ncc(C(F)(F)F)c(-c3c[nH]c4c(P(C)(C)=O)c(C#N)ccc34)n2)CN1 (stereo unspecified) + CCn1c(-c2cc(N3CCN(C)CC3)cnc2C(C)OC)c2c3cc(ccc31)-c1csc(n1)CC(NC(=O)C1CC1C)C(=O)N1CCCC(N1)C(=O)OCC(C)(C)C2
> 0.3 µM: IC50 (second compound 0.000949 µM) | IC50 (second compound 0.003 µM) | IC50 (second compound 0.00949 µM) | IC50 (second compound 0.03 µM)
inactive: viability, T/C (second compound 0.000949 µM, first compound 0.000949 µM) 98% | viability, T/C (second compound 0.000949 µM, first compound 0.003 µM) 101% | viability, T/C (second compound 0.000949 µM, first compound 0.00949 µM) 84% | viability, T/C (second compound 0.000949 µM, first compound 0.03 µM) 92.2% | viability, T/C (second compound 0.000949 µM, first compound 0.0949 µM) 91.8% | viability, T/C (second compound 0.000949 µM, first compound 0.3 µM) 77.6% | viability, T/C (second compound 0.003 µM, first compound 0.000949 µM) 94.8% | viability, T/C (second compound 0.003 µM, first compound 0.003 µM) 85.5% | viability, T/C (second compound 0.003 µM, first compound 0.00949 µM) 77.9% | viability, T/C (second compound 0.003 µM, first compound 0.03 µM) 77.2% | viability, T/C (second compound 0.003 µM, first compound 0.0949 µM) 80.6% | viability, T/C (second compound 0.003 µM, first compound 0.3 µM) 69.3% | viability, T/C (second compound 0.00949 µM, first compound 0.000949 µM) 71.4% | viability, T/C (second compound 0.00949 µM, first compound 0.003 µM) 65.6% | viability, T/C (second compound 0.00949 µM, first compound 0.00949 µM) 74.2% | viability, T/C (second compound 0.00949 µM, first compound 0.03 µM) 61.7% | viability, T/C (second compound 0.00949 µM, first compound 0.0949 µM) 62.8% | viability, T/C (second compound 0.00949 µM, first compound 0.3 µM) 63.6% | viability, T/C (second compound 0.03 µM, first compound 0.000949 µM) 67.4% | viability, T/C (second compound 0.03 µM, first compound 0.003 µM) 60.7% | viability, T/C (second compound 0.03 µM, first compound 0.00949 µM) 61% | viability, T/C (second compound 0.03 µM, first compound 0.03 µM) 58.5% | viability, T/C (second compound 0.03 µM, first compound 0.0949 µM) 55.4% | viability, T/C (second compound 0.03 µM, first compound 0.3 µM) 51.4% | viability, T/C (second compound 0.0949 µM, first compound 0.000949 µM) 47.5% | viability, T/C (second compound 0.0949 µM, first compound 0.003 µM) 44.3% | viability, T/C (second compound 0.0949 µM, first compound 0.00949 µM) 47.9% | viability, T/C (second compound 0.0949 µM, first compound 0.03 µM) 47.4% | viability, T/C (second compound 0.0949 µM, first compound 0.0949 µM) 45.6% | viability, T/C (second compound 0.0949 µM, first compound 0.3 µM) 40.3% | viability, T/C (second compound 0.3 µM, first compound 0.000949 µM) 34.7% | viability, T/C (second compound 0.3 µM, first compound 0.003 µM) 41.8% | viability, T/C (second compound 0.3 µM, first compound 0.00949 µM) 31.7% | viability, T/C (second compound 0.3 µM, first compound 0.03 µM) 36.4% | viability, T/C (second compound 0.3 µM, first compound 0.0949 µM) 36.6% | viability, T/C (second compound 0.3 µM, first compound 0.3 µM) 33.4%
< 0.000949 µM: IC50 (second compound 0.0949 µM) | IC50 (second compound 0.3 µM)

C=CC(=O)Nc1cc(Nc2nccc(-c3cn(C)c4ccccc34)n2)c(OC)cc1N(C)CCN(C)C + CCn1c(-c2cccnc2C(C)OC)c2c3cc(ccc31)N1CCOC(CC(NC(=O)C(C(C)C)N(C)C(=O)C3(F)CCN(C(=O)C#CC(C)(C)N(C)C)CC3)C(=O)N3CCCC(N3)C(=O)OCC(C)(C)C2)C1
0.6 µM: IC50 (second compound 0.03 µM)
0.571 µM: IC50 (second compound 0.003 µM)
0.525 µM: IC50 (second compound 0.0949 µM)
0.554 µM: IC50 (second compound 0.000949 µM)
inactive: viability, T/C [1] 85.2% | viability, T/C [2] 80.6% | viability, T/C [3] 73.5% | viability, T/C [4] 100% | viability, T/C [5] 60.9% | viability, T/C [6] 38.5% | viability, T/C [7] 91.3% | viability, T/C [8] 83.4% | viability, T/C [9] 95.2% | viability, T/C [10] 114% | viability, T/C [11] 59.7% | viability, T/C [12] 40.8% | viability, T/C [13] 94.1% | viability, T/C [14] 70.7% | viability, T/C [15] 87.6% | viability, T/C [16] 82.2% | viability, T/C [17] 56.3% | viability, T/C [18] 36.1% | viability, T/C [19] 80.9% | viability, T/C [20] 88% | viability, T/C [21] 84.5% | viability, T/C [22] 73% | viability, T/C [23] 60.6% | viability, T/C [24] 42.1% | viability, T/C [25] 106% | viability, T/C [26] 83.3% | viability, T/C [27] 84.5% | viability, T/C [28] 80.2% | viability, T/C [29] 67.7% | viability, T/C [30] 31.5% | viability, T/C [31] 74.5% | viability, T/C [32] 74.9% | viability, T/C [33] 85.7% | viability, T/C [34] 52.8% | viability, T/C [35] 54.2% | viability, T/C [36] 32.3%
0.287 µM: IC50 (second compound 0.3 µM)
0.453 µM: IC50 (second compound 0.00949 µM)
